For one series, the target named is T1, HDAC10 (Homo sapiens, UniProt Q969S8).
T1 construct: expressed in transfected cells
Nature of the series: Cellular NanoBRET assay, HDAC10. The series is classed as cell-based. For orientation: Bioluminescence resonance energy transfer reports proximity on the nanometre scale.

The nature of series [1]: Caverage in mice with STK11-deleted MC38 tumors. The class given is in vivo, mouse. The note with it: doses used in FIG. 12B and 12C.

Marks after values point to notes of the source that are not given here.

T1 sequence (Q969S8 whole entry): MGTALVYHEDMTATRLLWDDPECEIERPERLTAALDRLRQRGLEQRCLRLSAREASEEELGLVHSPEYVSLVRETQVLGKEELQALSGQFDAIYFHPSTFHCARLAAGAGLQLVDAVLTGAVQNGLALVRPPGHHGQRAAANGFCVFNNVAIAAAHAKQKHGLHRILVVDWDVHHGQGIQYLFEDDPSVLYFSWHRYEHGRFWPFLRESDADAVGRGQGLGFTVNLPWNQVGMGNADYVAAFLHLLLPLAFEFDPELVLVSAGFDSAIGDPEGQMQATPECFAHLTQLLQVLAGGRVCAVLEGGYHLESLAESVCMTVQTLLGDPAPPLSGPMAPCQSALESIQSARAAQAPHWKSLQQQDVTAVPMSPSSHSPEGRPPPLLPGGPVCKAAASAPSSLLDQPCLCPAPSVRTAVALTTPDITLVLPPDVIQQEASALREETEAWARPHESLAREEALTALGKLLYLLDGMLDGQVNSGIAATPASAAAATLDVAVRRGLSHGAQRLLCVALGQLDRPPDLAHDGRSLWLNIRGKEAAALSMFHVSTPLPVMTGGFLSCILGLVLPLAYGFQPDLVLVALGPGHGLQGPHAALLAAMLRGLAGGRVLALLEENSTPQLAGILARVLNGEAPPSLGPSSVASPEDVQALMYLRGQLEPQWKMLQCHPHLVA

As a reminder, the IC50 is the midpoint of a concentration-inhibition curve. Lower therefore signals higher potency. The molecule `Nc1cc(F)ccc1NC(=O)c1ccc(CNC(=O)/C=C/c2cccnc2)cc1` [Chidamide, reference compound] displayed an IC50 at HDAC10 greater than 30 µM. Consider `O=C(CCCCCCC(=O)Nc1ccccc1)NO` [Vorinostat, reference compound], for which the “Cavg, u” value in series [1] is recorded as 0.132* uM.

The values are drawn from patent publication US20260041653A1, “AN HDAC INHIBITOR FOR TREATING CANCER WITH A MODIFIED STK11 ACTIVITY OR EXPRESSION” (Tango Therapeutics, Inc., priority 2022, published 2026).
